In PubChem BioAssay (NCI):
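Cultured in 96-well plates, cells were exposed to test compound for 48 hours across five concentrations. Definition used: TGI = concentration required for complete inhibition of growth.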

Tests used:
Assay in all cases: NCI tumour cell line growth inhibition, 48 h
[1] = test system: HL-60(TB) leukemia
[2] = test system: MDA-N
[3] = test system: 786-0 renal
[4] = test system: NCI/ADR-RES ovarian
[5] = test system: UACC-62 melanoma
[6] = test system: BT-549 breast
[7] = test system: HCT-116 colon
[8] = test system: OVCAR-5 ovarian
[9] = test system: SK-MEL-2 melanoma
[10] = test system: COLO 205 colon
[11] = test system: U251 CNS
[12] = test system: T-47D breast
[13] = test system: SN12C renal
[14] = test system: CAKI-1 renal
[15] = test system: SK-MEL-5 melanoma
[16] = test system: HCC-2998 colon
[17] = test system: A549 NSCLC
[18] = test system: DU-145 prostate
[19] = test system: NCI-H460 lung
[20] = test system: EKVX NSCLC
[21] = test system: M14 melanoma
[22] = test system: SF-295 CNS
[23] = test system: SK-MEL-28 melanoma
[24] = test system: SF-268 CNS
[25] = test system: HOP-62 NSCLC
[26] = test system: UACC-257 melanoma
[27] = test system: NCI-H23 lung
[28] = test system: UO-31 renal
[29] = test system: OVCAR-4 ovarian
[30] = test system: NCI-H522 lung
[31] = test system: MOLT-4 leukemia
[32] = test system: OVCAR-8 ovarian
[33] = test system: SW-620 colon
[34] = test system: SNB-19 CNS
[35] = test system: HT29 colon
[36] = test system: RXF 393 renal
[37] = test system: K-562 leukemia
[38] = test system: LOX IMVI melanoma
[39] = test system: A498 renal
[40] = test system: SR leukemia
[41] = test system: HOP-92 NSCLC
[42] = test system: MCF7 breast
[43] = test system: MDA-MB-435
[44] = test system: MDA-MB-231 breast
[45] = test system: IGROV1 ovarian
[46] = test system: RPMI-8226 leukemia
[47] = test system: TK-10 renal
[48] = test system: PC-3 prostate
[49] = test system: SK-OV-3 ovarian
[50] = test system: MALME-3M melanoma
[51] = test system: CCRF-CEM leukemia
[52] = test system: HCT-15 colon
[53] = test system: HS 578T breast
[54] = test system: KM12 colon
[55] = test system: NCI-H226 lung
[56] = test system: ACHN renal
[57] = test system: OVCAR-3 ovarian
[58] = test system: SNB-75 CNS
[59] = test system: SF-539 CNS

COc1cc(/C=C/c2nc(NC(=S)Nc3ccccc3)nnc2C)cc(OC)c1OC
TGI [1]: 34.1 µM | TGI [2]: > 100 µM | TGI [3]: > 100 µM | TGI [4]: > 100 µM | TGI [5]: 51.1 µM | TGI [6]: 89 µM | TGI [7]: 86 µM | TGI [8]: > 100 µM | TGI [9]: 38.1 µM | TGI [10]: 32.2 µM | TGI [11]: > 100 µM | TGI [12]: 90.1 µM | TGI [13]: > 100 µM | TGI [14]: > 100 µM | TGI [15]: 29.1 µM | TGI [16]: 26.4 µM | TGI [17]: > 100 µM | TGI [18]: > 100 µM | TGI [19]: 36.8 µM | TGI [20]: > 100 µM | TGI [21]: > 100 µM | TGI [22]: > 100 µM | TGI [23]: > 100 µM | TGI [24]: > 100 µM | TGI [25]: > 100 µM | TGI [26]: > 100 µM | TGI [27]: 66.9 µM | TGI [28]: 67.7 µM | TGI [29]: 76.4 µM | TGI [30]: 28.4 µM | TGI [31]: > 100 µM | TGI [32]: > 100 µM | TGI [33]: > 100 µM | TGI [34]: > 100 µM | TGI [35]: 48.8 µM | TGI [36]: 66.8 µM | TGI [37]: 78.2 µM | TGI [38]: > 100 µM | TGI [39]: 82.4 µM | TGI [40]: > 100 µM | TGI [41]: > 100 µM | TGI [42]: > 100 µM | TGI [43]: > 100 µM | TGI [44]: > 100 µM | TGI [45]: 93.7 µM | TGI [46]: 67.8 µM | TGI [47]: > 100 µM | TGI [48]: > 100 µM | TGI [49]: > 100 µM | TGI [50]: > 100 µM | TGI [51]: 57.7 µM | TGI [52]: 37.1 µM | TGI [53]: > 100 µM | TGI [54]: 27.6 µM | TGI [55]: 81.4 µM | TGI [56]: 48.1 µM

OCC12C3C4C5C3C1C5C42 (configuration not stated)
TGI [1]: > 100 µM | TGI [2]: > 100 µM | TGI [3]: > 100 µM | TGI [4]: > 100 µM | TGI [5]: > 100 µM | TGI [6]: > 100 µM | TGI [7]: > 100 µM | TGI [8]: > 100 µM | TGI [9]: > 100 µM | TGI [10]: > 100 µM | TGI [11]: > 100 µM | TGI [12]: > 100 µM | TGI [13]: > 100 µM | TGI [14]: > 100 µM | TGI [15]: > 100 µM | TGI [17]: > 100 µM | TGI [18]: > 100 µM | TGI [19]: > 100 µM | TGI [20]: > 100 µM | TGI [21]: > 100 µM | TGI [22]: > 100 µM | TGI [23]: > 100 µM | TGI [24]: > 100 µM | TGI [25]: > 100 µM | TGI [26]: > 100 µM | TGI [27]: > 100 µM | TGI [28]: > 100 µM | TGI [29]: > 100 µM | TGI [30]: > 100 µM | TGI [31]: > 100 µM | TGI [32]: > 100 µM | TGI [33]: > 100 µM | TGI [34]: > 100 µM | TGI [35]: > 100 µM | TGI [36]: > 100 µM | TGI [37]: > 100 µM | TGI [38]: > 100 µM | TGI [39]: > 100 µM | TGI [40]: > 100 µM | TGI [41]: > 100 µM | TGI [42]: > 100 µM | TGI [43]: > 100 µM | TGI [44]: > 100 µM | TGI [57]: > 100 µM | TGI [45]: > 100 µM | TGI [47]: > 100 µM | TGI [48]: > 100 µM | TGI [58]: > 100 µM | TGI [49]: > 100 µM | TGI [50]: > 100 µM | TGI [51]: > 100 µM | TGI [52]: > 100 µM | TGI [53]: > 100 µM | TGI [59]: > 100 µM | TGI [55]: > 100 µM | TGI [56]: > 100 µM
